This test in a line: Ability to trap the DPPH radical. The conditions noted are these: 5 μg/mL. Here is the method:
PRINCIPLE: This method is based on the reduction of an alcoholic solution of the stable form of the DPPH. radical in the presence of an antioxidant donor of hydrogen (AH), which leads to the formation of a non-radical form DPPH-H. This reduction causes a color change from violet to yellow which could be studied at 517 nm. The faster the color change occurs, the more the donor is considered as a strong antioxidant. PROTOCOL: 50 μL of different concentrations of each extract was added to 1.950 mL of freshly prepared methanolic DPPH. […] After incubation for 30 minutes in the dark and at room temperature, the absorbance was read at 517 nm. Methanol was used as control and ascorbic acid was used as standard. The ability to trap DPPH^· was expressed in percentage inhibition as calculated using the following equation: [formula] The inhibitory concentrations 50 (IC50) were later determined by extrapolating after drawing curves of percentage inhibition against concentration. All samples were analyzed in triplicates. I.4.3. Evaluation of DPPH^· Anti-Radical Activity of Rough Extract Fractions This activity was evaluated using the protocol of Sanchez-Moreno et al. (1998) as described earlier.

`O=C1O[C@H]([C@@H](O)CO)C(O)=C1O` [Vitamin C, ascorbic acid]: the “% inhibition of DPPH radical” value is recorded as 54%.

The record behind these values is patent US11684646B2, “Methods and related compositions for reducing oxidative stress” (Gateway Health Alliances, Inc., priority 2019, dated 2023).
